Earlier results, collected in patent US4733002A, “Lipoxygenase inhibitor” (Green Cross Corporation, priority 1984, dated 1988).

Test system: 5-lipoxygenase
Settings: prior art, statement in words

5-lipoxygenase inhibiting activity	SMILES
not a satisfactory one	O=C(O)/C=C/c1ccc(O)c(O)c1 [caffeic acid]
not a satisfactory one	COC(=O)C=Cc1ccc(O)c(O)c1 [its methyl ester]
